Key:
[1] = set-up: method as in earlier work; settings: cited from earlier work
[2] = 1 week tolerability study in non-tumor-bearing CIEA-NOG mice; type: in vivo; settings: 180 mg/kg, continuous daily dosing, female CIEA-NOG mice
[3] = type: in vivo; settings: Mouse 5 mg/kg i.v. bolus
Source text: Mice were housed under pathogen-free conditions (AAALAC accredited facility) and treated according to the institutional, governmental and European Union guidelines (GV-SOLAS, Felasa, Austrian Animal Protection Laws). All animal studies were reviewed and approved by the internal ethics committee of Boehringer Ingelheim and the local governmental committee (Amt der Wiener Landesregierung, Magistratsabteilung 58, Vienna, Austria).
Pharmacokinetic and efficacy studies in mice […]
Following injection of the cells animals were randomized based on body weight (n=10/group). […] All doses were calculated relative to the mouse body weight on the treatment day. […]
body weight loss. Tumour load was measured 2-3 times weekly based on bioluminescence imaging as described previously. […]
1x10^6 cells/mL were incubated and continuously shaken in a Thermo Scientific Cytomat™ for 4 h at 85-95% relative humidity and 5-10% CO2 at 37 °C. Aliquots were taken from the medium at 0, 0.5, 1, 1.5, 2.5 und 4 h and concentrations of the test compounds quantified by HPLC/MS/MS on a BIOCIUS Life Sciences RapidFire® system coupled to a Thermo Scientific™ TSQ Vantage™ triple-quadrupole mass spectrometer. Predicted clearances were calculated using the well-stirred model.
(§1) In vitro plasma protein binding (PPB) was determined by a semi-automated equilibrium dialysis assay on a Tecan robotic system at a test compound concentration of 3 µM. […]

[4] = Hepatocytes predicted clearance, rat; type: in vitro ADME
Procedure: (§2) this tumor mouse model body weight changes can occur due to increased tumor load or due to […]
(§3) Determination of physicochemical and in vitro DMPK parameters […]
(§4) diluted with aqueous McIlvaine buffer at pH 6.8, or with acetonitrile/water (1:1) as a reference. Samples were shaken for 24 h at room temperature in 96-well plates (Whatman Uniplate® 96 wells, 750 µL, polypropylene, round bottom). The plate was then centrifuged at 3,000 rpm for 2 min. 250 µL of each sample were transferred to a Millipore MultiScreenHTS filter plate with a polycarbonate membrane, pore size 0.45 μm. Filtrates were collected by centrifugation at 3,000 rpm for 2 min. The dissolved concentrations were determined by UPLC/UV on a Waters ACQUITY UPLC® SQD system equipped with a Waters ACQUITY UPLC® BEH 2.1x50 mm C18 column, particle size 1.7 µm, using a short gradient with water/0.1% formic acid as solvent A and acetonitrile/0.1 % formic acid as solvent B (5 to 95 % B with 1.7 min total cycle time). Compound signals were measured with a photodiode array UV detector operated at 254 nm. Solubility was determined with a one point calibration by comparing peak areas relative to the reference standard using Waters Empower software. […]
as §1

Aqueous solubility = type: physicochemical; settings: aqueous McIlvaine buffer, pH 6.8
Procedure: as §2, §3, §4

U2OS cells = experiment: Toxicity in U2OS cells; type: cell-based; settings: after 24 h
Procedure: Figure 4 FRAP assay using U2OS cells transfected with GFP–BRD9. (a) Recovery half times of wild-type (wt) cells treated with DMSO in the absence or presence of 2.5 μM SAHA or treated with 1 at 1 μM and SAHA as indicated. In addition, cells expressing GFP–BRD9 with a BD-inactivating mutation (N100F) were analyzed. Significant differences relative to cells treated with SAHA (p < 0.0001) are shown by ****. (b) Time dependence of fluorescence recovery in the bleached area of cells expressing wt or mutant GFP–BRD9 with the corresponding treatments shown in (a). (c) Recovery half times of cells expressing wt GFP–BRD9 treated with various concentrations of DMSO and 2 in the presence or absence of SAHA as indicated. Cells expressing the GFP–BRD9 mutant (N100F) were treated as indicated. Significant differences relative to cells treated with SAHA (p < 0.0001) are shown by ****. (d) Time dependence of fluorescence recovery in the bleached area of cells expressing wt or mutant GFP–BRD9 with the corresponding treatments shown in (c). Curves represent averaged data of at least 20 replicates. […] The N100F construct is a negative control BRD9 mutant in which Asn100 is replaced by Phe100 and therefore acetylated histone cannot bind because of the lack of interaction to the anchor Asn and because of steric hindrance. […]

[5] = Hepatocytes predicted clearance, mouse; type: in vitro ADME
Procedure: as §2, §3, §4, §1

[6] = Hepatocytes predicted clearance, human; type: in vitro ADME
Procedure: as §2, §3, §4, §1

[7] = Disseminated EOL-1 AML mouse model; type: in vivo; settings: female, CIEA-NOG, po, 180 mg/kg p.o., plasma, last day of treatment

Compound	membrane permeability [1] [nM/s]	tolerability [2]	plasma CL [3] [% QH]	Hepatocytes pred. CL rat [4] [% QH]	solubility at 24 h (Aqueous solubility) [µg/mL]	toxicity in U2OS cells (U2OS cells)	Hepatocytes pred. CL mouse [5] [% QH]	Hepatocytes pred. CL human [6] [% QH]	AUC(0-t) [7] [µM·h]
CCn1cc(-c2cccc(C(F)(F)F)c2)c2sc(C(=N)NC3CCS(=O)(=O)CC3)cc2c1=O [I-BRD9]	210								
COc1cc(-c2cn(C)c(=O)c3cnccc23)c(OC)cc1CN(C)C [Compound 2, 4-{4-[(Dimethylamino)methyl]-2,5-dimethoxyphenyl}-2-methyl-1,2-dihydro-2,7-naphthyridin-1-one]		well-tolerated	65	17	> 90	no toxicity	56	17	268
COc1cc(-c2cn(C)c(=O)c3cnccc23)cc(OC)c1CN(C)C [Compound 1, n1cc2c(cc1)C(=CN(C2=O)C)c1cc(c(c(c1)OC)CN(C)C)OC]			57	< 7	> 91	no toxicity	58	17	
